Data from patent publication US11780832B2, “Lactivicin compounds, their preparation and use as antibacterial agents” (priority 2021, dated 2023).
In brackets after ≈: the same amount, converted by molar mass. Where two headings read alike, the source gives them in different places.

Legend:
Type in all cases: cell-based
[1] = test system: Acinetobacter baumannii ATCC 19606; experiment: MIC, CLSI broth microdilution; conditions: ATCC19606
In short: (§1)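 CLSI broth microdilution with 2-fold serial dilutions over a final range of 16-0.0125 μg/mL. Final inoculum 5×10^5 CFU/mL, using genotyped ATCC or clinical isolates taken two subcultures from frozen stock.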

[2] = test system: Citrobacter freundii species complex OXA-181; experiment: MIC, CLSI broth microdilution; conditions: Citrobacter freundii species complex, OXA-181; read-out: MIC
In short: as §1

[3] = test system: Enterobacter cloacae species complex NDM-1; experiment: MIC, CLSI broth microdilution
In short: as §1

[4] = test system: Escherichia coli ATCC 25922; experiment: MIC, CLSI broth microdilution; conditions: ATCC25922
In short: as §1

Escherichia coli CMY-2 = experiment: MIC, CLSI broth microdilution; conditions: CMY2
In short: as §1

[5] = test system: Escherichia coli CTX-M-15; experiment: MIC, CLSI broth microdilution; conditions: CTXM15
In short: as §1

Escherichia coli SHV-12 = experiment: MIC, CLSI broth microdilution; conditions: SHV12
In short: as §1

[6] = test system: Klebsiella aerogenes VIM-1, SHV-12; experiment: MIC, CLSI broth microdilution
In short: as §1

[7] = test system: Klebsiella oxytoca KPC-2, TEM-1; experiment: MIC, CLSI broth microdilution; conditions: KPC-2, TEM-1, read-out: MIC
In short: as §1

[8] = test system: Klebsiella pneumoniae KPC-2; experiment: MIC, CLSI broth microdilution; conditions: KPC2
In short: as §1

[9] = test system: Klebsiella pneumoniae KPC-3; experiment: MIC, CLSI broth microdilution; conditions: KPC3, KPC-3, read-out: MIC
In short: as §1

[10] = test system: Klebsiella pneumoniae OXA-163, OXA-1_OXA-30, SHV-1, TEM-1; experiment: MIC, CLSI broth microdilution
In short: (§2)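 Broth microdilution following CLSI guidance was used to obtain MICs. Bacteria, recovered through two passages from skim-milk stocks held at −80 °C, were exposed to doubling dilutions of compound (final 16-0.0125 μg/mL).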

[11] = test system: Klebsiella pneumoniae OXA-48, SHV-1; experiment: MIC, CLSI broth microdilution
In short: as §2

[12] = test system: Klebsiella pneumoniae SHV-12; experiment: MIC, CLSI broth microdilution; conditions: SHV12, SHV-12, read-out: MIC
In short: as §1

[13] = test system: Pseudomonas aeruginosa ATCC 27853; experiment: MIC, CLSI broth microdilution; conditions: ATCC27853
In short: as §1

[14] = test system: Pseudomonas aeruginosa AmpC overexpressed; experiment: MIC, CLSI broth microdilution
In short: as §2

[15] = test system: Pseudomonas aeruginosa OprD negative; experiment: MIC, CLSI broth microdilution
In short: as §2

[16] = test system: Serratia marcescens AmpC overexpressed; experiment: MIC, CLSI broth microdilution
In short: as §2

[17] = test system: Serratia marcescens SME-2; experiment: MIC, CLSI broth microdilution; conditions: SME2
In short: as §1

[18] = test system: Citrobacter freundii species complex Elevated AmpC; experiment: MIC against Elevated AmpC producing strains, compound alone; conditions: row r16
Method: (§3) Gram-negative and Gram-positive bacterial strains used during the in vitro minimum inhibitory concentration (MIC) determination were obtained either from the American Type Culture Collection (ATCC) or from clinical specimens. All strains were characterized genotypically and the respective antibiotic resistance markers for each strain were identified.
(§4) Isolates were sub-cultured onto appropriate media and stocked in skim milk at −80° C. Following two subcultures from frozen stock, in vitro antimicrobial susceptibility testing was performed using the Clinical and Laboratory Standards Institute (CLSI) broth microdilution method. Briefly, fresh cultures were suspended in culture media to give a final stock inoculum size of 5×10^7 colony forming units per milliliter of broth (CFU/mL). Test compounds were prepared at a stock solution concentration equal to 128 μg/mL, then diluted to give a final an initial working concentration of 32 μg/mL. 100 μL of the stock solutions were added to the first wells in a 96-well plate and were then diluted using a 2-fold dilution method to give a range of 32-0.025 μg/mL. 100 μL of the bacterial suspensions were then added to the 96-well plates to give a final working inoculum size of 5×10^5 CFU/mL. The final compound concentration range was 16-0.0125 μg/mL. […] MICs for comparator agents were determined using custom-designed, in-house prepared 96-well broth microdilution panels.

[19] = test system: Enterobacter cloacae species complex Elevated AmpC; experiment: as above
Method: as §3, §4

[20] = test system: Escherichia coli Elevated AmpC; experiment: as above
Method: as §3, §4

Escherichia coli CMY-DHA = experiment: MIC against CMY-DHA producing strains, compound alone
Method: as §3, §4

[21] = test system: Klebsiella pneumoniae CMY-DHA; experiment: as above; conditions: row r32
Method: as §3, §4

[22] = test system: Proteus mirabilis CMY-DHA; experiment: as above; conditions: row r36
Method: as §3, §4

[23] = test system: Klebsiella pneumoniae CMY-DHA; experiment: Synergistic activity: MIC in the presence of Avibactam; conditions: row r32, in the presence of Avibactam @ 4 μg/mL
Method: as §4
The same method used to test the activity of the claimed compounds was used to determine their synergistic activity when combined with a β-lactamase inhibitor except that either a fixed concentration or fixed ratio of a β-lactamase inhibitor was added to the 96-well plates prior to adding the bacteria cultures. Synergistic activity was defined as the reduction of MIC of a given compound when tested using the β-lactamase inhibitor versus testing the compound in the absence of a β-lactamase inhibitor.

Structure (SMILES) | MIC [1] [µg/mL] | MIC [2] [µg/mL] | MIC [3] [µg/mL] | MIC [4] [µg/mL] | MIC (Escherichia coli CMY-2) [µg/mL] | MIC [5] [µg/mL] | MIC (Escherichia coli SHV-12) [µg/mL] | MIC [6] [µg/mL] | MIC [7] [µg/mL] | MIC [8] [µg/mL] | MIC [9] [µg/mL] | MIC [10] [µg/mL] | MIC [11] [µg/mL] | MIC [12] [µg/mL] | MIC [13] [µg/mL] | MIC [14] [µg/mL] | MIC [15] [µg/mL] | MIC [16] [µg/mL] | MIC [17] [µg/mL] | MIC [18] [µg/mL] | other results
Nc1nc(/C(=N/OC2(C(=O)O)CCC(F)(F)CC2)C(=O)N[C@H]2CON(C3(C(=O)O)C[C@H](N4C(=O)c5cc(O)c(O)cc5C4=O)C(=O)O3)C2=O)cs1 (stereo partly drawn) [Cmpd 10, (4S)-2-[(4S)-4-{[(2Z)-2-(2-amino-1,3-thiazol-4-yl)-2-{[(1-carboxy-4,4-difluorocyclohexyl)oxy]imino}acetyl]amino}-3-oxo-1,2-oxazolidin-2-yl]-4-(5,6-dihydroxy-1,3-dioxo-1,3-dihydro-2H-isoindol-2-yl)-5-oxooxolane-2-carboxylic acid] | 0.12 (≈ 0.162 µM) | ≤ 0.015 | 2 (≈ 2.71 µM) | 0.12 (≈ 0.162 µM) | 1 (≈ 1.35 µM) | 1 (≈ 1.35 µM) | 2 (≈ 2.71 µM) | 0.12 (≈ 0.162 µM) | ≤ 0.015 | 0.03 (≈ 0.0406 µM) | 0.06 (≈ 0.0812 µM) | 0.06 (≈ 0.0812 µM) | ≤ 0.015 | ≤ 0.015 | 0.12 (≈ 0.162 µM) | 2 (≈ 2.71 µM) | 0.25 (≈ 0.338 µM) | 0.12 (≈ 0.162 µM) | 0.06 (≈ 0.0812 µM) | 0.25 (≈ 0.338 µM) | MIC [19]: 0.5 µg/mL (≈ 0.677 µM); MIC ([19]; strain of row r7): 4 µg/mL (≈ 5.42 µM); MIC ([19]; strain of row r20): 0.12 µg/mL (≈ 0.162 µM); MIC ([20]; strain of row r10): 0.015 µg/mL (≈ 0.0203 µM); MIC ([20]; strain of row r11): 0.12 µg/mL (≈ 0.162 µM); MIC ([20]; strain of row r12): 0.12 µg/mL (≈ 0.162 µM); MIC ([20]; strain of row r13): 0.03 µg/mL (≈ 0.0406 µM); MIC ([20]; strain of row r14): 0.03 µg/mL (≈ 0.0406 µM); MIC ([20]; strain of row r15): 0.25 µg/mL (≈ 0.338 µM); MIC (Escherichia coli CMY-DHA; strain of row r26): 0.5 µg/mL (≈ 0.677 µM); MIC (Escherichia coli CMY-DHA; strain of row r27): 0.03 µg/mL (≈ 0.0406 µM); MIC (Escherichia coli CMY-DHA; strain of row r28): 0.25 µg/mL (≈ 0.338 µM); MIC (Escherichia coli CMY-DHA; strain of row r29): 0.5 µg/mL (≈ 0.677 µM); MIC (Escherichia coli CMY-DHA; strain of row r30): 0.25 µg/mL (≈ 0.338 µM); MIC (Escherichia coli CMY-DHA; strain of row r31): 1 µg/mL (≈ 1.35 µM); MIC (Escherichia coli CMY-DHA; strain of row r34): 0.06 µg/mL (≈ 0.0812 µM); MIC (Escherichia coli CMY-DHA; strain of row r35): 0.12 µg/mL (≈ 0.162 µM); MIC [21]: 0.5 µg/mL (≈ 0.677 µM); MIC [22]: 0.12 µg/mL (≈ 0.162 µM); MIC [23]: 0.25 µg/mL
Nc1nc(/C(=N/OC2(C(=O)O)CC2)C(=O)N[C@H]2CON(C3(C(=O)O)C[C@H](N4C(=O)c5cc(O)c(O)cc5C4=O)C(=O)O3)C2=O)ns1 (stereo partly drawn) [Cmpd 18, (4S)-2-[(4S)-4-{[(2Z)-2-(5-amino-1,2,4-thiadiazol-3-yl)-2-{[(1-carboxycyclopropyl)oxy]imino}acetyl]amino}-3-oxo-1,2-oxazolidin-2-yl]-4-(5,6-dihydroxy-1,3-dioxo-1,3-dihydro-2H-isoindol-2-yl)-5-oxooxolane-2-carboxylic acid] | 0.25 (≈ 0.378 µM) | 0.06 (≈ 0.0907 µM) | 0.5 (≈ 0.756 µM) | 0.12 (≈ 0.181 µM) | 2 (≈ 3.02 µM) | 1 (≈ 1.51 µM) | 1 (≈ 1.51 µM) | 0.5 (≈ 0.756 µM) | 0.0149 (≈ 0.0225 µM) | 0.06 (≈ 0.0907 µM) | 0.06 (≈ 0.0907 µM) | 0.12 (≈ 0.181 µM) | 0.0149 (≈ 0.0225 µM) | 0.03 (≈ 0.0454 µM) | 0.12 (≈ 0.181 µM) | 1 (≈ 1.51 µM) | 0.12 (≈ 0.181 µM) | 0.5 (≈ 0.756 µM) | 0.06 (≈ 0.0907 µM) | 1 (≈ 1.51 µM) | MIC [19]: 1 µg/mL (≈ 1.51 µM); MIC ([19]; strain of row r7): 4 µg/mL (≈ 6.05 µM); MIC ([19]; strain of row r20): 0.25 µg/mL (≈ 0.378 µM); MIC ([20]; strain of row r10): 0.03 µg/mL (≈ 0.0454 µM); MIC ([20]; strain of row r11): 0.25 µg/mL (≈ 0.378 µM); MIC ([20]; strain of row r12): 0.5 µg/mL (≈ 0.756 µM); MIC ([20]; strain of row r13): 0.06 µg/mL (≈ 0.0907 µM); MIC ([20]; strain of row r14): 0.06 µg/mL (≈ 0.0907 µM); MIC ([20]; strain of row r15): 0.25 µg/mL (≈ 0.378 µM); MIC (Escherichia coli CMY-DHA; strain of row r26): 0.5 µg/mL (≈ 0.756 µM); MIC (Escherichia coli CMY-DHA; strain of row r27): 0.12 µg/mL (≈ 0.181 µM); MIC (Escherichia coli CMY-DHA; strain of row r28): 0.25 µg/mL (≈ 0.378 µM); MIC (Escherichia coli CMY-DHA; strain of row r29): 1 µg/mL (≈ 1.51 µM); MIC (Escherichia coli CMY-DHA; strain of row r30): 0.5 µg/mL (≈ 0.756 µM); MIC (Escherichia coli CMY-DHA; strain of row r31): 2 µg/mL (≈ 3.02 µM); MIC (Escherichia coli CMY-DHA; strain of row r34): 0.5 µg/mL (≈ 0.756 µM); MIC (Escherichia coli CMY-DHA; strain of row r35): 0.5 µg/mL (≈ 0.756 µM); MIC [21]: 1 µg/mL (≈ 1.51 µM); MIC [22]: 1 µg/mL (≈ 1.51 µM); MIC [23]: 0.25 µg/mL
